This note sets out measurements from US20250179059A1 (The Regents of the University of California, priority 2021, published 2025).

SMILES strings stand for the structures. Like-named read-outs stand apart in the source and are kept apart here.

As a reminder, the IC50 is the point on the concentration scale where inhibition reaches its midpoint. Broadly, the GI50 is the concentration that inhibits growth by half. A high value points to lower sensitivity of the cells.

In test [1] the target is T1, human BRD4 bromodomain II (Homo sapiens, UniProt O60885).
T1 construct: human BRD4 bromodomain II [based on Genbank NM_058243, residues 349-460]; host or cells: E. coli
The experiment in a line: Bromodomain binding assay (AlphaScreen), BRD4 BDII. A digest of the protocol:
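Tagged BRD4 BDI or BDII constructs, expressed in E. coli, competed against a K5/K8/K12/K16-acetylated biotin-H4 peptide. Proximity signal between bead pairs after room-temperature incubations gave concentration-response curves, from which IC50 was derived.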
A general note: Alpha assays give light when donor and acceptor beads are brought close together.

For test [2], the target named is T2, human BRD4 bromodomain I (Homo sapiens, UniProt O60885).
T2 construct: human BRD4 bromodomain I [residues 44-170]; host or cells: E. coli
The experiment in a line: Bromodomain binding assay (AlphaScreen), BRD4 BDI. As to conditions: Table C1. As for the experimental part:
Bromodomain Binding Assay
The bromodomain binding assay utilizes AlphaScreen technology. Compounds compete with a biotinylated peptide ligand (from histone H4: aa 1-21, K5/K8/K12/K16Ac-biotin) for binding to a hexahistidine (His6)-tagged bromodomain. Peptide binding is detected by fluorescence signal after singlet oxygen energy transfer from peptide-bound AlphaScreen streptavidin-coated donor beads to His6-tagged bromodomain-bound nickel-chelate acceptor beads (PerkinElmer). Briefly, 8 μL 2.5× bromodomain (E. coli expressed, N-terminal His6-tagged human BRD4 bromodomain II [based on Genbank NM_058243, residues 349-460] or N-terminal His6-tagged human BRD4 bromodomain I [residues 44-170]) in reaction buffer (50 mM HEPES [pH 7.5], 100 mM NaCl, 0.05% CHAPS, 0.1% BSA, 1% DMSO) is added to wells of an assay plate (384-well low flange white, flat bottom, polystyrene microplate, Corning #3572; buffer only is added to some wells as a negative control). A compound concentration series (10 concentrations, 3-fold serial dilutions previously prepared in 100% DMSO, or 100% DMSO only negative control) is delivered to the assay plate with an Echo 550 acoustic liquid handler (Labcyte), followed by plate centrifugation and incubation for 30 minutes at room temperature. Then 4 μL 5× biotinylated peptide ligand is added, followed by plate centrifugation and gentle shaking for 30 minutes at room temperature to mix. After this incubation, 4 μL 5× donor beads are added, and the plate is centrifuged, followed by brief gentle shaking to mix. Finally, 4 μL 5× acceptor beads are added, and the plate is centrifuged, followed by gentle shaking for 60 minutes at room temperature in the dark. AlphaScreen signal (excitation/emission: 680 nm/520-620 nm) is detected with an EnSpire multimode plate reader (PerkinElmer). Percentage peptide binding is plotted as a function of concentration, and curve fitting is used to determine competitive compound binding ICsos.

The subject of test [3] is human SKM-1 acute myeloid leukemia cells. The experiment in a line: SKM-1 antiproliferation cell-based assay (ATPlite). As to conditions: Homo sapiens. A digest of the protocol: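 Log-phase cells in RPMI 1640/15% FBS were seeded at 34722 cells/mL and exposed for 4 days to nine-concentration DMSO serial dilutions in triplicate. Viability was read as ATP luminescence (ATPlite 1step), and IC50 values came from variable-slope non-linear regression.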
On the technique in general: Cellular ATP, detected with luciferase, serves as a proxy for viable cell number.

The mark [4] stands for this setting: AlphaScreen assay, Table C1, read-out: BRD4 BDII IC50.
Setting [5] is: AlphaScreen assay, Table C2, read-out: BRD4 BDII IC50.
Setting [6] is: SKM-1, 96 h, SKM-1 antiproliferation assay, 4 days, Table C2.
Setting [7] is: BRD4 BDII AlphaScreen assay, read-out: BRD4 BD2 IC50.
The mark [8] stands for this setting: SKM-1, SKM-1 antiproliferation assay.

As to `CC(=O)Nc1ccc(-c2cccc(-c3ccnc(N4CCNCC4)c3)c2O)cc1F` [Example 163, N-(3-fluoro-2′-hydroxy-3′-(2-(piperazin-1-yl)pyridin-4-yl)-[1,1′-biphenyl]-4-yl)acetamide], the IC50 in test [1] (setting [4]) is 1 to 10 nM; in test [1] (setting [5]), 1 to 10 nM; in test [2], > 100 nM. In addition, in test [3] (setting [6]), the GI50 lay within 30 to 300 nM.
On to `CN1CCN(c2ccc(-c3cccc(-c4ccnc(N5CCNCC5)c4)c3O)cc2Cl)C1=O` [Example 245, 1-(3-Chloro-2′-hydroxy-3′-(2-(piperazin-1-yl)pyridin-4-yl)-[1,1′-biphenyl]-4-yl)-3-methylimidazolidin-2-one], for which the figures for the 50% inhibitory concentration (IC50) in test [1] (setting [4]), in test [1] (setting [5]) and in test [2] were 1 to 10 nM, 1 to 10 nM and > 100 nM, respectively. In test [3] (setting [6]), this molecule showed a concentration for 50% growth inhibition (GI50) of 30 to 300 nM.
With `CC(=O)Nc1ccc(-c2cccc(-c3cc(N4CCN(C)CC4)no3)c2O)cc1` [Example 6, N-(2′-Hydroxy-3′-(3-(4-methylpiperazin-1-yl)isoxazol-5-yl)-[1,1′-biphenyl]-4-yl)acetamide], the concentration for half-maximal inhibition (IC50) in test [1] (setting [4]) was 10 to 100 nM; in test [1] (setting [5]), 10 to 100 nM; in test [2], > 100 nM.
In the case of `C[C@@H]1CN(c2cc(-c3cc(F)cc(-c4ccc(-n5ccn(C)c5=O)c(Cl)c4)c3O)ccn2)CCN1` [Example 413, (R)-1-(3-chloro-5′-fluoro-2′-hydroxy-3′-(2-(3-methylpiperazin-1-yl)pyridin-4-yl)-[1,1′-biphenyl]-4-yl)-3-methyl-1H-imidazol-2(3H)-one], the IC50 in test [1] (setting [4]) is 0.01 to 1 nM; in test [1] (setting [5]) it was 0.01 to 1 nM; in test [2] it was > 100 nM. The molecule further came in with a GI50 in test [3] (setting [6]) of 0.3 to 30 nM.
As to `CN1CCN(c2ccc(-c3cc(F)cc(-c4ccnc(N5CCNCC5)c4)c3O)cc2Cl)C1=O` [Example 297, 1-(3-chloro-5′-fluoro-2′-hydroxy-3′-(2-(piperazin-1-yl)pyridin-4-yl)-[1,1′-biphenyl]-4-yl)-3-methylimidazolidin-2-one], the IC50 in test [1] (setting [4]) is 1 to 10 nM; in test [1] (setting [5]), 1 to 10 nM; in test [2], > 100 nM. The molecule further came in with a GI50 in test [3] (setting [6]) of 30 to 300 nM.
Turning to `CC(=O)Nc1ccc(-c2cccc(-c3cc(N4CCNCC4)no3)c2O)cc1` [Example 3, N-(2′-Hydroxy-3′-(3-(piperazin-1-yl)isoxazol-5-yl)-[1,1′-biphenyl]-4-yl)acetamide], the IC50 was 10 to 100 nM in test [1] (setting [4]), 10 to 100 nM in test [1] (setting [5]) and > 100 nM in test [2].
For `CC(=O)Nc1ccc(-c2cccc(-c3cccc(N4CCOCC4)c3)c2O)cc1F` [Example 95, N-(3-Fluoro-2′-hydroxy-3″-morpholino-[1,1′:3′,1″-terphenyl]-4-yl)acetamide], the IC50 in test [1] (setting [4]) was 10 to 100 nM; in test [1] (setting [5]) it was 10 to 100 nM; in test [2] it was > 100 nM.
For the molecule `CC(=O)Nc1ccc(-c2cccc(-c3cccc(N4CCNCC4)c3)c2O)cc1F` [Example 109, N-(3-Fluoro-2′-hydroxy-3″-(piperazin-1-yl)-[1,1′:3′,1″-terphenyl]-4-yl)acetamide], the half-inhibitory concentration (IC50) in test [1] (setting [4]) is 1 to 10 nM; in test [1] (setting [5]), 1 to 10 nM; in test [2], > 100 nM. The GI50 in test [3] (setting [6]) fell in the range of 300 to 3000 nM.
Take `CC(=O)Nc1ccc(-c2cccc(-c3cccc(N4CCNCC4)c3)c2O)cc1Cl` [Example 171, N-(3-chloro-2′-hydroxy-3″-(piperazin-1-yl)-[1,1′:3′,1″-terphenyl]-4-yl)acetamide]: the half-maximal inhibitory concentration (IC50) in test [1] (setting [4]) is 1 to 10 nM; in test [1] (setting [5]), 1 to 10 nM; in test [2] it was > 100 nM.
With `Cn1ccn(-c2ccc(-c3cc(F)cc(-c4ccnc(N5CCNCC5)c4)c3O)cc2Cl)c1=O` [Example 365, 1-(3-chloro-5′-fluoro-2′-hydroxy-3′-(2-(piperazin-1-yl)pyridin-4-yl)-[1,1′-biphenyl]-4-yl)-3-methyl-1H-imidazol-2(3H)-one], the IC50 in test [1] (setting [4]) was 1 to 10 nM; in test [1] (setting [5]), 1 to 10 nM; in test [2] it was > 100 nM. The 50% growth inhibitory concentration (GI50) in test [3] (setting [6]) was in the range of 0.3 to 30 nM.
For the molecule `Cn1ccn(-c2ccc(-c3cc(F)cc(-c4cccc(N5CC6CNCC6C5)c4)c3O)cc2Cl)c1=O` (stereo not shown) [Example 943, 1-(3-chloro-5′-fluoro-3″-(hexahydropyrrolo[3,4-c]pyrrol-2(1H)-yl)-2′-hydroxy-[1,1′:3′,1″-terphenyl]-4-yl)-3-methyl-1,3-dihydro-2H-imidazol-2-one], the IC50 in test [1] (setting [7]) lay within 1 to 10 nM. This molecule also registered a GI50 in test [3] (setting [8]) of 0.3 to 30 nM.
The corresponding values for `Cn1ccn(-c2ccc(-c3cc(F)cc(-c4cccc(-c5ccc(CN)cc5)c4)c3O)cc2Cl)c1=O` [Example 863] are 10 to 100 nM and 300 to 3000 nM.
Regarding `CN1CCN(c2ccc(-c3cccc(-c4cc(-c5ccccc5)nc(N5CCNCC5)c4)c3O)cc2Cl)C1=O` [Example 344, 1-(3-chloro-2′-hydroxy-3′-(2-phenyl-6-(piperazin-1-yl)pyridin-4-yl)-[1,1′-biphenyl]-4-yl)-3-methylimidazolidin-2-one], the IC50 in test [1] (setting [5]) was 10 to 100 nM. This molecule came in with a 50% growth inhibitory concentration (GI50) in test [3] (setting [6]) of 30 to 300 nM.
In the case of `Cn1ccn(-c2ccc(-c3cc(F)cc(-c4cccc(-c5ccc(N)cc5)c4)c3O)cc2Cl)c1=O` [Example 855], the IC50 in test [1] (setting [7]) lay within 10 to 100 nM. The GI50 in test [3] (setting [8]) was 30 to 300 nM.
`Cn1ccn(-c2ccc(-c3cc(F)cc(-c4ccnc(N5CCNC6(CC6)C5)c4)c3O)cc2Cl)c1=O` [Example 559, 1-(3′-(2-(4,7-diazaspiro[2.5]octan-7-yl)pyridin-4-yl)-3-chloro-5′-fluoro-2′-hydroxy-[1,1′-biphenyl]-4-yl)-3-methyl-1H-imidazol-2(3H)-one]: in test [1] (setting [5]), the IC50 fell in the range of 0.01 to 1 nM. Besides, the GI50 in test [3] (setting [6]) lay in the range of 30 to 300 nM.
